Values quoted from earlier work, collected in patent US8563554B2, “Deuterated pyrazinoisoquinoline compounds” (Concert Pharmaceuticals, Inc., priority 2009, dated 2013).

dose excreted in the kidneys (share of a dose of praziquantel): Approximately 80% | excreted in the form of metabolites (share of the renally excreted dose present as metabolites): > 99%
SMILES: O=C(C1CCCCC1)N1CC(=O)N2CCc3ccccc3C2C1 (centres unmarked) [praziquantel, 2-(cyclohexylcarbonyl)-1,2,3,6,7,11b-hexahydro-4H-pyrazino[2,1-a]isoquinolin-4-one]
